How the values were obtained:
[1] = Cmax in dog at 1 mg/kg, po; type: ADME, organism-based, Canis lupus familiaris; design: dose 1 mg/kg, route oral; details: in vivo
[2] = AUC in rat at 10 mg/kg, po; type: ADME, organism-based; design: dose 10 mg/kg, route oral; details: plasma
[3] = AUC in dog at 1 mg/kg, po; type: ADME, organism-based, Canis lupus familiaris; design: dose 1 mg/kg, route oral; details: plasma
Rattus norvegicus [4] = experiment: Inhibition of ADP-induced platelet aggregation in Sprague-Dawley rat assessed as bleeding time at 2.5 mg/kg, po after 2 hrs (reference value: 9.4 mins); type: organism-based; design: dose 2.5 mg/kg, route oral; details: in vivo
[5] = Half life in rat at 10 mg/kg, po; type: ADME, organism-based; design: dose 10 mg/kg, route oral; details: in vivo
Rattus norvegicus [6] = experiment: Inhibition of ADP-induced platelet aggregation in Sprague-Dawley rat assessed as blood loss volume at 2.5 mg/kg, po administered 2 hrs prior to transection measured for 30 mins (reference value: < 0.5 ml); type: organism-based; design: dose 2.5 mg/kg, route oral; details: in vivo, 0.5 h
Rattus norvegicus [7] = experiment: Inhibition of ADP-induced platelet aggregation in Sprague-Dawley rat plasma at 2.5 mg/kg, po treated 2.5 hrs prior to ADP-challenge measured after 2 mins by light transmission-based assay; type: functional
[8] = Cmax in rat at 10 mg/kg, po; type: ADME, organism-based; design: dose 10 mg/kg, route oral; details: in vivo
[9] = Half life in dog at 1 mg/kg, po; type: ADME, organism-based, Canis lupus familiaris; design: dose 1 mg/kg, route oral; details: in vivo
[10] = Apparent oral clearance in dog at 1 mg/kg; type: ADME, organism-based, Canis lupus familiaris; design: dose 1 mg/kg, route oral; details: in vivo
[11] = Apparent volume of distribution during terminal phase in dog at 1 mg/kg, po; type: ADME, organism-based, Canis lupus familiaris; design: dose 1 mg/kg, route oral; details: in vivo, read-out: Vz/F
[12] = (§1) Apparent volume of distribution during terminal phase in rat at 10 mg/kg, po; type: ADME, organism-based; design: dose 10 mg/kg, route oral; details: in vivo, read-out: Vz/F
[13] = Apparent oral clearance in rat at 10 mg/kg; type: ADME, organism-based; design: dose 10 mg/kg, route oral; details: in vivo
[14] = target: P2Y purinoceptor 12 (Rattus norvegicus) (UniProt Q9EPX4); experiment: Antagonist activity at P2Y12 receptor in rat platelet-rich plasma assessed as inhibition of ADP-induced platelet aggregation at 3 uM incubated for 5 mins prior to ADP-challenge by light transmission-based assay
Rattus norvegicus [15] = experiment: as §1; type: ADME, organism-based; design: dose 10 mg/kg, route oral; details: in vivo
Rattus norvegicus [16] = experiment: Inhibition of ADP-induced platelet aggregation in Sprague-Dawley rat assessed as bleeding time at 5 mg/kg, po after 2 hrs (reference value: 9.4 mins); type: organism-based; design: dose 5 mg/kg, route oral; details: in vivo
Rattus norvegicus [17] = experiment: Inhibition of ADP-induced platelet aggregation in Sprague-Dawley rat assessed as blood loss volume at 5 mg/kg, po administered 2 hrs prior to transection measured for 30 mins (reference value: < 0.5 ml); type: organism-based; design: dose 5 mg/kg, route oral; details: in vivo, 0.5 h
Rattus norvegicus [18] = experiment: Inhibition of ADP-induced platelet aggregation in Sprague-Dawley rat assessed as bleeding time at 0.625 mg/kg, po after 2 hrs (reference value: 9.4 mins); type: organism-based; design: dose 0.625 mg/kg, route oral; details: in vivo
Rattus norvegicus [19] = experiment: Inhibition of ADP-induced platelet aggregation in Sprague-Dawley rat assessed as blood loss volume at 0.625 mg/kg, po administered 2 hrs prior to transection measured for 30 mins (reference value: < 0.5 ml); type: organism-based; design: dose 0.625 mg/kg, route oral; details: in vivo, 0.5 h
Rattus norvegicus [20] = experiment: Inhibition of ADP-induced platelet aggregation in Sprague-Dawley rat assessed as blood loss volume at 10 mg/kg, po administered 2 hrs prior to transection measured for 30 mins (reference value: < 0.5 ml); type: organism-based; design: dose 10 mg/kg, route oral; details: in vivo, 0.5 h
Cytochrome P450 2C9 = Cytochrome P450 2C9 (Homo sapiens, UniProt P11712); experiment: Inhibition of CYP2C9 (unknown origin); type: ADME
[21] = Inhibition of CYP450 (unknown origin) at 30 uM; type: ADME; details: human
[22] = target: Voltage-gated inwardly rectifying potassium channel KCNH2 (Homo sapiens, UniProt Q12809); experiment: Inhibition of human ERG channel at 10 uM by patch-clamp technique
Rattus norvegicus [23] = experiment: Inhibition of ADP-induced platelet aggregation in Sprague-Dawley rat assessed as bleeding time at 1.25 mg/kg, po after 2 hrs (reference value: 9.4 mins); type: organism-based; design: dose 1.25 mg/kg, route oral; details: in vivo
Rattus norvegicus [24] = experiment: Inhibition of ADP-induced platelet aggregation in Sprague-Dawley rat assessed as bleeding time at 10 mg/kg, po after 2 hrs (reference value: 9.4 mins); type: organism-based; design: dose 10 mg/kg, route oral; details: in vivo
Rattus norvegicus [25] = experiment: Inhibition of ADP-induced platelet aggregation in Sprague-Dawley rat assessed as blood loss volume at 1.25 mg/kg, po administered 2 hrs prior to transection measured for 30 mins (reference value: < 0.5 ml); type: organism-based; design: dose 1.25 mg/kg, route oral; details: in vivo, 0.5 h

Sequence of P2Y purinoceptor 12 (Rattus norvegicus) (Q9EPX4 whole entry): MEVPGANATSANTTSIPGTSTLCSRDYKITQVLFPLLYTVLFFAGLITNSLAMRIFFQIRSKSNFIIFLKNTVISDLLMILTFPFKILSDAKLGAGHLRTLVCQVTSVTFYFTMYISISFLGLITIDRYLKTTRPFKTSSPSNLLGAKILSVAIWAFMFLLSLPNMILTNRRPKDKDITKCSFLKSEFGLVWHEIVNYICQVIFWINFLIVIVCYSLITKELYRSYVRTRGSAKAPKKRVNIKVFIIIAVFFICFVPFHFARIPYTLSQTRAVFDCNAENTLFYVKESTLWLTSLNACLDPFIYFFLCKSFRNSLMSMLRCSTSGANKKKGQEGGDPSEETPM
Sequence of Voltage-gated inwardly rectifying potassium channel KCNH2 (Q12809 whole entry): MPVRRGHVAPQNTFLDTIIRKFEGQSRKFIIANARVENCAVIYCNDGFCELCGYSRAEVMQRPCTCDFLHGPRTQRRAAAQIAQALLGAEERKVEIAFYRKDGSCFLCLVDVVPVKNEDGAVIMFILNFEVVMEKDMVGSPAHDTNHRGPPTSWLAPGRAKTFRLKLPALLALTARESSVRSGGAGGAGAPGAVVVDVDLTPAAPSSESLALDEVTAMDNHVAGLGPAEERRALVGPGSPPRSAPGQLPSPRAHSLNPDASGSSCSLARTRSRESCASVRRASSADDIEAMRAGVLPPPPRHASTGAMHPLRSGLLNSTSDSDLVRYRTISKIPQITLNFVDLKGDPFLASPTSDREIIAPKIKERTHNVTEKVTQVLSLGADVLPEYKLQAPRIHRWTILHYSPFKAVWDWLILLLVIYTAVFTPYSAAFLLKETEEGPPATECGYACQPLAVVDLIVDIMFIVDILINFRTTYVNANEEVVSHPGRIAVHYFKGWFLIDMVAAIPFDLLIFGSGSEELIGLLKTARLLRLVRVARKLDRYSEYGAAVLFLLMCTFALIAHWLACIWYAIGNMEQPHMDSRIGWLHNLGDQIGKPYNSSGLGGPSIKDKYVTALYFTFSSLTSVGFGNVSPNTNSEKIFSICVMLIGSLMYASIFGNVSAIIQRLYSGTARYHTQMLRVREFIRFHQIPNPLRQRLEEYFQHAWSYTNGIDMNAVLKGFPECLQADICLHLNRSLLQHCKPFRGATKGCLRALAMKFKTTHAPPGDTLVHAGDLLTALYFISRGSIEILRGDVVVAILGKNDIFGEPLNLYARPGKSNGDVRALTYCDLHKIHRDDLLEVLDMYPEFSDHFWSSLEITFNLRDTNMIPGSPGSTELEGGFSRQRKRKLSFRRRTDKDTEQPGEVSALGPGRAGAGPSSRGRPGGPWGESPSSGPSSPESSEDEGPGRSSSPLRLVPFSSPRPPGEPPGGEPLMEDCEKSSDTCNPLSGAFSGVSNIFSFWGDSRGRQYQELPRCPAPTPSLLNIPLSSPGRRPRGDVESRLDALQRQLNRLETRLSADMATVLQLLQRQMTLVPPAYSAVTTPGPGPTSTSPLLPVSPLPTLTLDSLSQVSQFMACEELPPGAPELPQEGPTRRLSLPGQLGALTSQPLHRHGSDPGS
Sequence of Cytochrome P450 2C9 (P11712 whole entry): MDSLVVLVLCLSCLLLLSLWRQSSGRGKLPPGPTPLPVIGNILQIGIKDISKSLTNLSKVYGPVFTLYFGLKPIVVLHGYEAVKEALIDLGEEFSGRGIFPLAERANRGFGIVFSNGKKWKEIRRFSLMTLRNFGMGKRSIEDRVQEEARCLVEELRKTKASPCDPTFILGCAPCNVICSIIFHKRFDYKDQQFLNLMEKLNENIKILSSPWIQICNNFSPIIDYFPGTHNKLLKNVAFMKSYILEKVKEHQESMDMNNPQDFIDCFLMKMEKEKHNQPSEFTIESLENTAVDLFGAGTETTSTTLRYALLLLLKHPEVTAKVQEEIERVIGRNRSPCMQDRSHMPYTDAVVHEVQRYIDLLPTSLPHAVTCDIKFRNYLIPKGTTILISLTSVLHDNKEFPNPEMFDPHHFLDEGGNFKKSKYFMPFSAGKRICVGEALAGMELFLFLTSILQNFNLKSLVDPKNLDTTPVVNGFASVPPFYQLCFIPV

Row | SMILES | Cmax [1] [ng/mL] | AUC [2] [ng·h/mL] | AUC [3] [ng·h/mL] | half-life [5] [min] | Cmax [8] [ng/mL] | half-life [9] [min] | CL/F [10] [mL/min/kg] | Vd/F [11] [L/kg] | Vd/F [12] [L/kg] | CL/F [13] [mL/min/kg] | inhibition [14] [%] | further results
1 | CCCSc1nc(N[C@@H]2C[C@H]2c2ccc(F)c(F)c2)c2nnn([C@@H]3C[C@H](OCCO)[C@@H](O)[C@H]3O)c2n1 [TICAGRELOR] | 125 | 1400 | 504 | 134 | 267 | 122 | 32.8 | 5.76 | 24.2 | 133 | – | Time (Rattus norvegicus [4]): > 30 min; Activity (Rattus norvegicus [6]): 0.5 mL; inhibition in vivo at 2.5 mg/kg (Rattus norvegicus [7]): 59%
2 | CCCSc1nc(N[C@@H]2C[C@H]2c2ccc(F)c(F)c2)c2nnn([C@H]3[C@H](O)[C@H](O)[C@]4(CO)C[C@H]34)c2n1 | – | – | – | – | – | – | – | – | – | – | 0 | –
3 | CCCSc1nc(N[C@@H]2C[C@H]2c2ccc(F)c(F)c2)c2nnn([C@@H]3C[C@H](OCCOCCO)[C@@H](O)[C@H]3O)c2n1 | – | – | – | – | – | – | – | – | – | – | 0 | –
4 | CCCSc1nc(N[C@@H]2C[C@H]2c2ccc(F)c(F)c2)c2nnn([C@H]3[C@H](O)[C@H](O)[C@@H](OCCO)[C@H]3F)c2n1 | 55.6 | 512 | 218 | 170 | 127 | 148 | 72.3 | 15.4 | 82.4 | 350 | – | –
5 | CCCSc1nc(N[C@@H]2C[C@H]2c2ccc(F)c(F)c2)c2nnn([C@@H]3C[C@H](OCC(O)CO)[C@@H](O)[C@H]3O)c2n1 (mixture of isomers) | – | 13.8 | – | 103 | 3.89 | – | – | – | – | – | – | Vz/F (Rattus norvegicus [15]): 1513 L/kg
6 | CCCSc1nc(N[C@@H]2C[C@H]2c2ccc(F)c(F)c2)c2nnn([C@H]3[C@H](O)[C@H](O)[C@@H](O)[C@H]3F)c2n1 | 110 | 1200 | 469 | 214 | 303 | 116 | 36.7 | 6.26 | 43.4 | 139 | – | Time (Rattus norvegicus [16]): > 30 min; Activity (Rattus norvegicus [17]): 0.9 mL; Time (Rattus norvegicus [18]): 8.59 min; Activity (Rattus norvegicus [19]): < 0.5 mL; Activity (Rattus norvegicus [20]): 1.75 mL; IC50 (Cytochrome P450 2C9): 8.82 µM; Time (Rattus norvegicus [4]): 9.76 min; Activity (Rattus norvegicus [6]): < 0.5 mL; inhibition in vivo at 2.5 mg/kg (Rattus norvegicus [7]): 95%; inhibition (INH) [21]: Not Active; inhibition (INH) [22]: Not Active; Time (Rattus norvegicus [23]): 10.67 min; Time (Rattus norvegicus [24]): > 30 min; Activity (Rattus norvegicus [25]): < 0.5 mL
7 | CCCSc1nc(N[C@@H]2C[C@H]2c2ccc(Cl)s2)c2nnn([C@@H]3C[C@H](OCCO)[C@@H](O)[C@H]3O)c2n1 | – | 64.4 | – | 201 | 28.7 | – | – | – | 206 | 712 | – | –
8 | CCCSc1nc(N[C@@H]2C[C@H]2c2ccc(F)c(F)c2)c2nnn(C3[C@H](O)[C@H](O)[C@@H](O)[C@H]3O)c2n1 (some centres undefined) | – | 146 | – | 102 | 55.4 | – | – | – | 217 | 2200 | – | –
9 | CCCSc1nc(NC2Cc3ccccc3C2)c2nnn([C@@H]3C[C@H](OCCO)[C@@H](O)[C@H]3O)c2n1 | – | – | – | – | – | – | – | – | – | – | 0 | –
10 | CCCSc1nc(N[C@@H]2C[C@H]2c2ccc(F)c(F)c2)c2nnn([C@@H]3C[C@H](F)[C@@H](O)[C@H]3O)c2n1 | 8.29 | 1270 | 24.3 | 140 | 195 | 72.6 | 865 | 88.4 | 27.1 | 137 | – | –

— ChEMBL document CHEMBL3098001, “Synthesis and biological evaluation of cyclopentyl-triazolol-pyrimidine (CPTP) based P2Y12 antagonists” (Bioorg Med Chem Lett, 2014)
